# Laboratory results reported in ChEMBL document CHEMBL3259580, “New compounds from acid hydrolyzed products of the fruits of Momordica charantia L. and their inhibitory activity against protein tyrosine phosphatas 1B” (Eur J Med Chem, 2014).
# Legend:
# [1] = molecular target: Tyrosine-protein phosphatase non-receptor type 1 (Homo sapiens) (UniProt P18031); test: Inhibition of PTP1B (unknown origin) using para-nitro phenyl phosphate as substrate at 20 uM after 30 mins
# [2] = molecular target: T1, Tyrosine-protein phosphatase non-receptor type 1 (Homo sapiens) (UniProt P18031); test: Inhibition of PTP1B (unknown origin) using para-nitro phenyl phosphate as substrate at 10 uM after 30 mins
# T1 sequence (whole entry): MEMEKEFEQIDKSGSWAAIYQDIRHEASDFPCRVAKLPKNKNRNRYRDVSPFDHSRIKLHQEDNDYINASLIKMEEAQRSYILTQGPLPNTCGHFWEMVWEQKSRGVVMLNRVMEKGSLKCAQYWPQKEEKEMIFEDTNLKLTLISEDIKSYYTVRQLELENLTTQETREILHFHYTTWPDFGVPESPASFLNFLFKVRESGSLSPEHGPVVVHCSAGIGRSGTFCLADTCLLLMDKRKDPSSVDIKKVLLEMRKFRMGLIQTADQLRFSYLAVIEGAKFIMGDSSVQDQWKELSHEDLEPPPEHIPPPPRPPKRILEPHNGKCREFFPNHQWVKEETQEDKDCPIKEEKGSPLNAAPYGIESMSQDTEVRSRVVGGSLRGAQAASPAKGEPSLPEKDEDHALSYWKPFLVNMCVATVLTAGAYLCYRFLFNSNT
# [3] = molecular target: T1, Tyrosine-protein phosphatase non-receptor type 1 (Homo sapiens); test: Inhibition of PTP1B (unknown origin) using para-nitro phenyl phosphate as substrate at 30 uM after 30 mins
Molecule,inhibition [1] [%],inhibition [2] [%],inhibition [3] [%]
SODIUM ORTHOVANAD,44,–,–
CO[C@@H]1O[C@@]23C=C[C@@H]4[C@]1(CC[C@@]1(C)[C@@H]([C@@H](C)C[C@H](C=C(C)C)OC)CC[C@]41C)[C@@H]2CC[C@H](O)C3(C)C,–,44,62
C[C@H](C/C=C/C(C)(C)O)[C@H]1CC[C@@]2(C)[C@@H]3[C@@H](O)C=C4[C@@H](CC[C@H](O)C4(C)C)[C@]3(C=O)CC[C@]12C,–,-5,–
CO[C@H]1O[C@]23C=C[C@@H]4[C@@]1(CC[C@]1(C)[C@@H]([C@H](C)C[C@H](C=C(C)C)OC)CC[C@@]41C)[C@@H]2CC[C@H](O)C3(C)C,–,32,62
C=C(C)/C=C/C[C@@H](C)[C@H]1CC[C@@]2(C)[C@@H]3C=C[C@@]45O[C@@H](O)[C@]3(CC[C@]12C)[C@@H]4CC[C@H](O)C5(C)C,–,44,68
CO[C@H]1O[C@@]23C=C[C@@H]4[C@]1(CC[C@@]1(C)[C@@H]([C@@H](C)C[C@H](C=C(C)C)OC)CC[C@]41C)[C@@H]2CC[C@H](O)C3(C)C,–,57,77
C[C@H](C/C=C/C(C)(C)O)[C@H]1CC[C@@]2(C)[C@@H]3C=C[C@@]45OC[C@]3(CC[C@]12C)[C@@H]4CC[C@H](O)C5(C)C,–,30,52
CO[C@@H]1O[C@]23C=C[C@@H]4[C@@]1(CC[C@]1(C)[C@@H]([C@H](C)C[C@H](C=C(C)C)OC)CC[C@@]41C)[C@@H]2CC[C@H](O)C3(C)C,–,32,40
C=C(C)/C=C/C[C@@H](C)[C@H]1CC[C@@]2(C)[C@@H]3C=C[C@@]45O[C@@H](OC)[C@]3(CC[C@]12C)[C@@H]4CC[C@H](O)C5(C)C,–,41,60
CO[C@@H]1O[C@]23C=C[C@@H]4[C@@]1(CC[C@]1(C)[C@@H]([C@H](C)C/C=C/C(C)(C)OC)CC[C@@]41C)[C@@H]2CC[C@H](O)C3(C)C,–,22,37
CO[C@@H]1O[C@]23C=C[C@@H]4[C@@]1(CC[C@]1(C)[C@@H]([C@H](C)C/C=C/C(C)(C)O)CC[C@@]41C)[C@@H]2CC[C@H](O)C3(C)C,–,-7,–
